Source: US20230167127A1, “COMPOUNDS AND THEIR USE IN THE TREATMENT OF BACTERIAL INFECTION” (Hoffmann-La Roche Inc., priority 2020, published 2023)
Like-named read-outs stand apart in the source and are kept apart here. Each block holds one molecule with its values, some of them ahead of it.

System: Escherichia coli ATCC 25922
Test: 50% growth inhibitory concentration (IC50) determination, Iso-Sensitest broth dilution
Format: cell-based
Settings: strain Escherichia coli ATCC 25922, 10-point broth dilution, optical density at 600 nm over 16 h, read-out: Escherichia coli growth inhibition IC50
Description: 50% Growth Inhibitory Concentration (IC50) Determination
The in vitro antimicrobial activity of the compounds was determined according to the following procedure:
The assay used a 10-point Iso-Sensitest broth dilution method to measure quantitatively the in vitro
ATCC 25922, Acinetobacter baumannii ATCC 17961, Klebsiella pneumoniae ATCC 43816 and Staphylococcus aureus ATCC 29213.
Stock compounds in DMSO were serially twofold diluted (e.g. range from 50 to 0.097 μM final concentration) in 384 wells microtiter plates and inoculated with 50 μL of the bacterial suspension in Iso-
ell of 50 μL/well. Microtiter plates were incubated at 35±2° C.
Bacterial cell growth was determined with the measurement of optical density at λ=600 nm each 20 minutes over a time course of 16 h.
Growth inhibition was calculated during the logarithmic growth of the bacterial cells with
Table 1 provides the 50% growth inhibitory concentrations (IC50) in micromoles per liter of the compounds of present invention obtained against the strain Escherichia coli ATCC 25922.

[1] = Escherichia coli, ATCC25922, 16 h

Compound: N#Cc1cccc2c1CC(NC1CCC3(CN(c4ccc5c(n4)NC(=O)CO5)C(=O)O3)C(N)C1)C2 (racemic) [Example 166, 2-[[rac-5,6-cis-5,8-trans-6-amino-2-oxo-3-(3-oxo-4H-pyrido[3,2-b][1,4]oxazin-6-yl)-1-oxa-3-azaspiro[4.5]decan-8-yl]amino]-2,3-dihydro-1H-indene-4-carbonitrile]
IC50: 172 nM

Compound: NC1CC(NC2Cc3cccc(F)c3C2)CCC12CN(c1ccc3c(n1)NC(=O)CO3)C(=O)O2 (racemic) [Example 167, 6-[rac-5,6-cis-5,8-trans-6-amino-8-[(4-fluoro-2,3-dihydro-1H-inden-2-yl)amino]-2-oxo-1-oxa-3-azaspiro[4.5]decan-3-yl]-4H-pyrido[3,2-b][1,4]oxazin-3-one; 2,2,2-trifluoroacetic acid]
IC50 [1]: 190 nM

Compound: NC1c2cccc(Cl)c2CC1CN1CC(C2CN(c3cnc4c(n3)NC(=O)CO4)C(=O)O2)C1 (racemic) [Example 205, 6-[5-[1-[(rac-1,2-trans-1-amino-4-chloro-2,3-dihydro-1H-inden-2-yl)methyl]azetidin-3-yl]-2-oxo-1,3-oxazolidin-3-yl]-4H-pyrazino[2,3-b][1,4]oxazin-3-one]
IC50 [1]: 123 nM

Compound: NC1CC(NCC2Cc3ccnc(Cl)c3C2)CCC12CN(c1ccc3c(n1)NC(=O)CO3)C(=O)O2 (racemic) [Example 206, 6-[rac-5,6-cis-5,8-trans-6-amino-8-[(1-chloro-6,7-dihydro-5H-cyclopenta[c]pyridin-6-yl)methylamino]-2-oxo-1-oxa-3-azaspiro[4.5]decan-3-yl]-4H-pyrido[3,2-b][1,4]oxazin-3-one]
IC50 [1]: 1160 nM

Compound: NC1c2cccc(Cl)c2CC1CNC1CC2(C1)CN(c1ccc3c(n1)NC(=O)CO3)C(=O)O2 (racemic) [Example 210, 2,4-cis-6-[6-oxo-2-[[rac-1,2-trans-1-amino-4-chloro-2,3-dihydro-1H-inden-2-yl]methylamino]-5-oxa-7-azaspiro[3.4]octan-7-yl]-4H-pyrido[3,2-b][1,4]oxazin-3-one]
IC50 [1]: 295 nM

Compound: NC1c2cccc(Cl)c2CC1CNCCCC1CN(c2ccc3c(n2)NC(=O)CO3)C(=O)O1 (racemic) [Example 227, 6-[2-Oxo-5-[3-[[rac-1,2-trans-1-amino-4-chloro-2,3-dihydro-1H-inden-2-yl]methylamino]propyl]-1,3-oxazolidin-3-yl]-4H-pyrido[3,2-b][1,4]oxazin-3-one]
IC50 [1]: 132 nM

Compound: N#Cc1cccc2c1CC(CNCCC1CN(c3ccc4c(n3)NC(=O)CO4)C(=O)O1)C2N (racemic) [Example 228, rac-1,2-trans-1-Amino-2-[[2-[2-oxo-3-(3-oxo-4H-pyrido[3,2-b][1,4]oxazin-6-yl)-1,3-oxazolidin-5-yl]ethylamino]methyl]-2,3-dihydro-1H-indene-4-carbonitrile]
IC50 [1]: 174 nM

Compound: N#Cc1cccc2c1CC(CNCC1CN(c3ccc4c(n3)NC(=O)CO4)C(=O)O1)C2N (racemic) [Example 229, rac-1,2-trans-1-Amino-2-((((2-oxo-3-(3-oxo-3,4-dihydro-2H-pyrido[3,2-b][1,4]oxazin-6-yl)oxazolidin-5-yl)methyl)amino)methyl)-2,3-dihydro-1H-indene-4-carbonitrile]
IC50 [1]: 1570 nM

Compound: O=C1COc2ccc(N3CC(CCNCC4Cc5c(Cl)cccc5C4O)OC3=O)nc2N1 (racemic) [Example 230, 6-[2-Oxo-5-[2-[[rac-1,2-trans-4-chloro-1-hydroxy-2,3-dihydro-1H-inden-2-yl]methylamino]ethyl]-1,3-oxazolidin-3-yl]-4H-pyrido[3,2-b][1,4]oxazin-3-one]
IC50 [1]: < 97.7 nM

Compound: O=C1COc2ccc(N3CC(CCNCC4Cc5c(Cl)cccc5C4O)OC3=O)nc2N1 (racemic) [Example 231, 6-[2-Oxo-5-[2-[[rac-1,2-cis-4-chloro-1-hydroxy-2,3-dihydro-1H-inden-2-yl]methylamino]ethyl]-1,3-oxazolidin-3-yl]-4H-pyrido[3,2-b][1,4]oxazin-3-one]
IC50: 176 nM

Compound: N#Cc1cccc2c1CC(NC1CCC3(CN(c4ccc5c(n4)NC(=O)CO5)C(=O)O3)C(N)C1)C2 (racemic) [Example 241, 2-[[rac-5,6-trans-5,8-cis-6-Amino-2-oxo-3-(3-oxo-4H-pyrido[3,2-b][1,4]oxazin-6-yl)-1-oxa-3-azaspiro[4.5]decan-8-yl]amino]-2,3-dihydro-1H-indene-4-carbonitrile; formic acid]
IC50: 509 nM

Compound: NC1c2cccc(Cl)c2CC1NCCCC1CN(c2ccc3c(n2)NC(=O)CO3)C(=O)O1 (racemic) [Example 244, 6-[2-oxo-5-[3-[[rac-1,2-trans-1-amino-4-chloro-2,3-dihydro-1H-inden-2-yl]amino]propyl]-1,3-oxazolidin-3-yl]-4H-pyrido[3,2-b][1,4]oxazin-3-one]
IC50 [1]: < 97.7 nM

Compound: NC1c2cccc(Cl)c2CC1NCCCC1CN(c2cnc3c(n2)NC(=O)CO3)C(=O)O1 (racemic) [Example 245, 6-[2-oxo-5-[3-[[rac-1,2-trans-1-amino-4-chloro-2,3-dihydro-1H-inden-2-yl]amino]propyl]-1,3-oxazolidin-3-yl]-4H-pyrazino[2,3-b][1,4]oxazin-3-one]
IC50 [1]: 119 nM

Compound: NC1c2cccc(Cl)c2CC1CNCCC1CN(c2ccc3c(n2)NC(=O)CS3)C(=O)O1 (racemic) [Example 246, 5-[2-[(rac-1,2-trans-1-amino-4-chloro-2,3-dihydro-1H-inden-2-yl)methylamino]ethyl]-3-(3-oxo-4H-pyrido[3,2-b][1,4]thiazin-6-yl)-1,3-oxazolidin-2-one]
IC50 [1]: < 97.7 nM

Compound: N#Cc1cccc2c1CC(CNCCC1CN(c3ccc4c(n3)NC(=O)CS4)C(=O)O1)C2N (racemic) [Example 247, rac-1,2-trans-1-amino-2-[[2-[2-oxo-3-(3-oxo-4H-pyrido[3,2-b][1,4]thiazin-6-yl)-1,3-oxazolidin-5-yl]ethylamino]methyl]-2,3-dihydro-1H-indene-4-carbonitrile]
IC50 [1]: < 97.7 nM

Compound: N#Cc1cccc2c1CC(CN1CCC3(CN(c4ccc5c(n4)NC(=O)CO5)C(=O)O3)C(CN)C1)C2 (racemic) [Example 249, 2-[[rac-5,6-trans-6-(Aminomethyl)-2-oxo-3-(3-oxo-4H-pyrido[3,2-b][1,4]oxazin-6-yl)-1-oxa-3,8-diazaspiro[4.5]decan-8-yl]methyl]-2,3-dihydro-1H-indene-4-carbonitrile; formic acid]
IC50 [1]: 108 nM

The next lines start with the values.

IC50 [1]: < 97.7 nM
Compound: NC1c2c(Cl)cccc2CC1CNCCC1CN(c2ccc3c(n2)NC(=O)CO3)C(=O)O1 (racemic) [Example 168, 6-[2-oxo-5-[2-[[rac-1,2-trans-1-amino-7-chloro-2,3-dihydro-1H-inden-2-yl]methylamino]ethyl]-1,3-oxazolidin-3-yl]-4H-pyrido[3,2-b][1,4]oxazin-3-one; formic acid]

IC50 [1]: < 97.7 nM
Compound: NC1c2c(Cl)cccc2CC1CNCCC1CN(c2cnc3c(n2)NC(=O)CO3)C(=O)O1 (racemic) [Example 169, 6-[2-oxo-5-[2-[[rac-1,2-trans-1-amino-7-chloro-2,3-dihydro-1H-inden-2-yl]methylamino]ethyl]-1,3-oxazolidin-3-yl]-4H-pyrazino[2,3-b][1,4]oxazin-3-one]

IC50 [1]: < 97.7 nM
Compound: NC1c2cccc(Cl)c2CC1CNCCc1cn(-c2ccc3c(n2)NC(=O)CO3)c(=O)o1 (racemic) [Example 170, 6-[2-oxo-5-[2-[[rac-1,2-trans-1-amino-4-chloro-2,3-dihydro-1H-inden-2-yl]methylamino]ethyl]-1,3-oxazol-3-yl]-4H-pyrido[3,2-b][1,4]oxazin-3-one]

IC50 [1]: < 97.7 nM
Compound: NC1c2cccc(Cl)c2CC1CCNCC1CN(c2ccc3c(n2)NC(=O)CO3)C(=O)O1 (racemic) [Example 194, 6-[2-oxo-5-[[2-[rac-1,2-trans-1-amino-4-chloro-2,3-dihydro-1H-inden-2-yl]ethylamino]methyl]-1,3-oxazolidin-3-yl]-4H-pyrido[3,2-b][1,4]oxazin-3-one]

IC50 [1]: < 97.7 nM
Compound: NC1c2cccc(Cl)c2CC1CCN1CC2(C1)CN(c1ccc3c(n1)NC(=O)CO3)C(=O)O2 (racemic) [Example 195, 6-[6-oxo-2-[2-[rac-1,2-trans-1-amino-4-chloro-2,3-dihydro-1H-inden-2-yl]ethyl]-5-oxa-2,7-diazaspiro[3.4]octan-7-yl]-4H-pyrido[3,2-b][1,4]oxazin-3-one; 2,2,2-trifluoroacetic acid]

IC50 [1]: < 97.7 nM
Compound: NC1c2cccc(Cl)c2CC1CN[C@H]1C[C@@]2(CN(c3ccc4c(n3)NC(=O)CO4)C(=O)O2)C1 (mixture of isomers) [Example 211, 2,4-trans-6-[6-oxo-2-[[rac-1,2-trans-1-amino-4-chloro-2,3-dihydro-1H-inden-2-yl]methylamino]-5-oxa-7-azaspiro[3.4]octan-7-yl]-4H-pyrido[3,2-b][1,4]oxazin-3-one]

IC50 [1]: < 97.7 nM
Compound: NC1c2cccc(Cl)c2CC1CN1CCC2(CC1)CN(c1ccc3c(n1)NC(=O)CO3)C(=O)O2 (racemic) [Example 212, 6-[2-oxo-8-[[rac-1,2-trans-1-amino-4-chloro-2,3-dihydro-1H-inden-2-yl]methyl]-1-oxa-3,8-diazaspiro[4.5]decan-3-yl]-4H-pyrido[3,2-b][1,4]oxazin-3-one]

IC50 [1]: < 97.7 nM
Compound: NC1c2cccc(Cl)c2CC1CNCCC1CN(c2ccc3c(n2)NC(=O)CO3)C(=O)O1 (racemic) [Example 226, 6-[2-Oxo-5-[2-[[rac-1,2-trans-1-amino-4-chloro-2,3-dihydro-1H-inden-2-yl]methylamino]ethyl]-1,3-oxazolidin-3-yl]-4H-pyrido[3,2-b][1,4]oxazin-3-one]
